Data: patent publication US20250065017A1, “Fractionating Extracellular Matrix to Modulate Bioactivity and the Host Response” (University of Pittsburgh - Of the Commonwealth System of …, priority 2014, published 2025)

Test system: THP1 cells
Assay: CD206 and CD86 expression by western blot
Assay type: cell-based, human
Details: Aspirin 200 μM with UBM hydrogel
Description: THP-1 human monocytes were obtained from the American Tissue Culture Collection (ATCC, Manassas, VA) and maintained in RPMI, 10% FBS, 1% penicillin/streptomycin, 2 mM L-glutamine, and 1 mM sodium pyruvate in a humidified atmosphere at 37° C. with 5% CO2. For experiments, 500,000 THP-1 cells/mL were plated with 320 nM phorbol 12-myristate 13-acetate (PMA) for 24 hours to induce differentiation into macrophages. Adherent macrophages were washed in PBS and placed in fresh media, followed by a 24 hour incubation to acquiesce.
THP1 macrophage-like cells prepared as described in the cell culture section had 200 μM Aspirin added (where appropriate) 1 hour prior to UBM hydrogel (0.5 mg/mL) treatment. Cells were then treated with UBM hydrogel for 4, 8, or 24 hours. At the specified time points, cells were washed extensively with 1× PBS and lysis buffer (50 mM Tris, 20 mM NaCl, 1% Triton X-100) was added. Cells were mechanically removed from the culture dish, transferred to centrifuge tubes and incubated on ice for 10 minutes. Lysates were spun down at 14000 rpm for 20 minutes at 4° C. to remove any debris. The clarified lysate was stored at −80° C. Lysates were diluted 1:1 in 2× Laemmli Sample Buffer (Bio-Rad, Hercules, CA) and boiled at 95° C. for 5 minutes. Samples were then resolved on 9% SDS-PAGE gels (National Diagnostics) and transferred to polyvinyldifluoride (PVDF, Millipore) membranes. Membranes were blocked with 1:1 Odyssey Blocking Buffer:1×PBS (Licor) overnight at 4° C. Blocked membranes were immunoblotted with either rabbit anti-human COX2 (1:5,000, Abcam), goat anti-human CD206 (1:3,000, Santa-Cruz), rabbit anti-human CD86 (1:5,000, Abcam), or mouse anti-human β-Actin (1:5,000, Abcam) in blocking buffer for 1 hour at room temperature with agitation. Membranes were extensively washed with TBST before the appropriate secondary antibodies (1:10,000, donkey anti-goat IR Dye 680, donkey-anti rabbit IR Dye 680, and donkey anti-mouse IR Dye 800, Licor) in imaging buffer (1:1 Odyssey Blocking Buffer, 0.02% SDS in TBST) were added for 30 minutes with agitation. […]

## CC(=O)Oc1ccccc1C(=O)O [Aspirin]
At 24 hours
  maximum increase in CD86 expression: 0.15 fold
  reduction in CD206 expression: 91%
Early time points
  CD206 expression: did not alter CD206 expression
